Where two headings read alike, the source gives them in different places.
Biological target: T1, human TGR5 (Homo sapiens, UniProt Q8TDU6)
T1 construct: expressed in transfected cells
T1 sequence (Q8TDU6 1-330): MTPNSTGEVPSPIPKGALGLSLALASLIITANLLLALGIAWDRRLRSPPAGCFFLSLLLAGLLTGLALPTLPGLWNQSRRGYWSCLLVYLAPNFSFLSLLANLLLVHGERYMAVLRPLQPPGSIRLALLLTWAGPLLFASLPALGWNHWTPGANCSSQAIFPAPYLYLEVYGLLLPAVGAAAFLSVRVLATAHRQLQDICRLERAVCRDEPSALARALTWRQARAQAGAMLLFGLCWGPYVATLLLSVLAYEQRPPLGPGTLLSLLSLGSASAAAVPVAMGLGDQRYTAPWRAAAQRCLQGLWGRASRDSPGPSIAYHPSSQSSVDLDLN
Experiment: Cell-based TGR5 assay, HEK293 cells stably expressing human TGR5, cAMP by HTRF
Conditions: 0.05 nM to 10 μM
Procedure: Two primary cell based screens were performed. The first utilized HEK293 cells stably transfected to heterologously express human TGR5. The second screen used the human caecum carcinoma cell line NCI-H716 which endogenously expresses human TGR5. In both assays, cells are treated with candidate TGR5 activators and assessed for the increased intercellular levels of cAMP.
HEK293 cells were transfected with a vector that expresses a gene encoding human TGR5, and a stable cell line was isolated using drug selection following standard techniques. Cells were grown overnight at 37° C./5% CO2 prior to assay.
TGR5-mediated cAMP generation was measured using a homogeneous time resolved fluorescence (HTRF) detection method (Cisbio). Test compounds were dissolved in DMSO to a final concentration of 10 mM. Serial 3-fold dilutions of the stock solution were made in DMSO, and these solutions were diluted 100-fold into Hanks Balanced Salt Solution supplemented with 10 mM HEPES pH 7.4 and 0.5 mM isobutyl methylxanthine (IBMX). Prior to assay, culture medium was replaced with fresh medium, and test compounds diluted in HBSS/HEPES/IBMX were added to the cells and incubated at 37° C. for 30 minutes.
Following incubation with test compounds, cAMP was detected through the successive addition of cAMP labeled with the modified allophyocyanin dye d2 (cAMP-d2) and cryptate-labeled anti-cAMP in lysis buffer, and reading HTRF per the manufacturer's instructions. A standard curve was used to convert the raw HTRF data into [cAMP].

[1] = HEK293 cells stably expressing human TGR5, 30 min at 37 C, read-out: pEC50 Human TGR5 (converted)
[2] = pEC50 Human TGR5, HEK293 cells stably expressing human TGR5, 30 min at 37 C

EC50 [1]	EC50 [2]	SMILES
0.126 to 1 µM	–	O=C(N1CCN(C2CC2)c2ccccc21)C1(NCc2cc(I)ccc2C(F)(F)F)CC1 [Example 164, (4-cyclopropyl-3,4-dihydroquinoxalin-1(2H)-yl)(1-(5-iodo-2-(trifluoromethyl)benzylamino)cyclopropyl)methanone]
0.126 to 1 µM	–	O=C(N1CCN(C2CC2)c2ccccc21)C1(NCc2c(Cl)ccc(Cl)c2O)CC1 [Example 168, (4-cyclopropyl-3,4-dihydroquinoxalin-1(2H)-yl)(1-((3,6-dichloro-2-hydroxybenzyl)amino)cyclopropyl)methanone]
0.126 to 1 µM	–	O=C([C@@H]1CSCN1Cc1c(Cl)ccc(Cl)c1O)N1CCN(C2CC2)c2ccccc21 [Example 170, (R)-(4-cyclopropyl-3,4-dihydroquinoxalin-1(2H)-yl)(3-(3,6-dichloro-2-hydroxybenzyl)thiazolidin-4-yl)methanone]
0.126 to 1 µM	–	CN(CCCCc1cc(Cl)c(OCC2(C(=O)N3CCN(C4CC4)c4ccccc43)CC2)cc1Cl)C[C@H](O)[C@@H](O)[C@H](O)[C@H](O)CO [Example 171, (4-cyclopropyl-3,4-dihydroquinoxalin-1(2H)-yl)(1-((2,5-dichloro-4-(4-(methyl((2S,3R,4R,5R)-2,3,4,5,6-pentahydroxyhexyl)amino)butyl)phenoxy)methyl)-cyclopropyl)methanone]
1.26 to 50.1 µM	–	CN(C[C@H](O)[C@@H](O)[C@H](O)[C@H](O)CO)C(=O)CCCCc1ccc(C(F)(F)F)c(CNC2(C(=O)N3CCN(C4CC4)c4ccccc43)CC2)c1 [Example 172, 5-(3-((1-(4-cyclopropyl-1,2,3,4-tetrahydroquinoxaline-1-carbonyl)cyclopropylamino)methyl)-4-(trifluoromethyl)phenyl)-N-methyl-N-((2S,3R,4R,5R)-2,3,4,5,6-pentahydroxyhexyl)pentanamide]
0.126 to 1 µM	–	O=C([C@@H]1CSCN1Cc1cc(Cl)c(CCCCCNc2nc(N(CCO)CCO)nc(N(CCO)CCO)n2)cc1Cl)N1CCN(C2CC2)c2ccccc21 [Example 173, 2-({4-[bis(2-hydroxyethyl)amino]-6-{[5-(2,5-dichloro-4-{[(4R)-4-[(4-cyclopropyl-1,2,3,4-tetrahydroquinoxalin-1-yl)carbonyl]-1,3-thiazolidin-3-yl]methyl}phenyl)pentyl]amino}-1,3,5-triazin-2-yl}(2-hydroxyethyl)amino)ethan-1-ol]
1.26 to 50.1 µM	–	O=C(NC[C@@H](O)[C@H](O)[C@@H](O)[C@@H](O)CO)C(CCCc1cc(Cl)c(CN2CSC[C@H]2C(=O)N2CCN(C3CC3)c3ccccc32)cc1Cl)C(=O)NC[C@@H](O)[C@H](O)[C@@H](O)[C@@H](O)CO [Example 174, 2-(3-(2,5-dichloro-4-(((R)-4-(4-cyclopropyl-1,2,3,4-tetrahydroquinoxaline-1-carbonyl)thiazolidin-3-yl)methyl)phenyl)propyl)-N1,N3-bis((2R,3S,4S,5S)-2,3,4,5,6-pentahydroxyhexyl)malonamide]
< 0.1 µM	–	N=C(N)NCCCCCc1cc(Cl)c(CN2CSC[C@H]2C(=O)N2CCN(C3CC3)c3ccccc32)cc1Cl [Example 181, (R)-(3-(4-(5-guanidinylpentyl)-2,5-dichlorobenzyl)thiazolidin-4-yl)(4-cyclopropyl-3,4-dihydroquinoxalin-1(2H)-yl)methanone]
< 0.1 µM	–	O=C(N1CCN(C2CC2)c2ccccc21)C1(NCc2cc(C3CC3)ccc2Cl)CC1 [Example 183, (1-(2-chloro-5-cyclopropylbenzylamino)cyclopropyl)(4-cyclopropyl-3,4-dihydroquinoxalin-1(2H)-yl)methanone]
1.26 to 50.1 µM	–	O=C(NCCOCCOCCOCCNC(=O)c1ccc(COc2cc(Cl)c(CN3CSC[C@H]3C(=O)N3CCN(C4CC4)c4ccccc43)cc2Cl)cc1)c1ccc(COc2cc(Cl)c(CN3CSC[C@@H]3C(=O)N3CCN(C4CC4)c4ccccc43)cc2Cl)cc1 [Example 190]
< 0.1 µM	–	CN(C[C@H](O)[C@@H](O)[C@H](O)[C@H](O)CO)C(=O)CCCCc1cc(Cl)c(COC2(C(=O)N3CCN(C4CC4)c4ccccc43)CC2)cc1Cl [Example 192]
–	0.126 to 1 µM	O=C(NCCCN(CCCNC(=O)[C@H](O)[C@@H](O)[C@H](O)[C@H](O)CO)C(=O)NCCCCOc1cc(Cl)c(CN2CSC[C@H]2C(=O)N2CCN(C3CC3)c3ccccc32)cc1Cl)[C@H](O)[C@@H](O)[C@H](O)[C@H](O)CO [Example 195]
0.126 to 1 µM	–	CN(C[C@H](O)[C@@H](O)[C@H](O)[C@H](O)CO)C(=O)c1ccc(COc2cc(Cl)c(CN3CSC[C@H]3C(=O)N3CCN(C4CC4)c4ccccc43)cc2Cl)cc1 [Example 196]
1.26 to 50.1 µM	–	O=C(NCCCN(CCCNC(=O)[C@H](O)[C@@H](O)[C@H](O)[C@H](O)CO)C(=O)c1ccc(COc2cc(Cl)c(CN3CSC[C@H]3C(=O)N3CCN(C4CC4)c4ccccc43)cc2Cl)cc1)[C@H](O)[C@@H](O)[C@H](O)[C@H](O)CO [Example 197]
0.126 to 1 µM	–	CN(C)c1nc(NCCCCCc2cc(Cl)c(CN3CSC[C@H]3C(=O)N3CCN(C4CC4)c4ccccc43)cc2Cl)nc(NC(CO)(CO)CO)n1 [Example 200]
0.126 to 1 µM	–	CN(C[C@H](O)[C@H](O)[C@@H](O)[C@H](O)CO)C(=O)c1ccc(CCc2cc(Cl)c(CN3CSC[C@H]3C(=O)N3CCN(C4CC4)c4ccccc43)cc2Cl)cn1 [Example 201]

EC50 [1]	EC50 [2]	SMILES
0.126 to 1 µM	–	O=C(NC[C@H](O)[C@@H](O)[C@H](O)[C@H](O)CO)c1ccc(CCc2cc(Cl)c(CN3CSC[C@H]3C(=O)N3CCN(C4CC4)c4ccccc43)cc2Cl)cn1 [Example 202]
0.126 to 1 µM	–	CN(C[C@H](O)[C@@H](O)[C@H](O)[C@H](O)CO)C(=O)c1ccc(COc2cc(Cl)c(CN3CSC[C@H]3C(=O)N3CCN(C4CC4)c4ccccc43)cc2Cl)o1 [Example 203]
0.126 to 1 µM	–	CN(C[C@H](O)[C@@H](O)[C@H](O)[C@H](O)CO)C(=O)c1ccc(COc2cc(Cl)c(CN3CSC[C@H]3C(=O)N3CCN(C4CC4)c4ccccc43)cc2Cl)nc1 [Example 205]
0.126 to 1 µM	–	C[C@@H](NC(=O)[C@@H](C)NC(=O)[C@@H](C)NC(=O)c1ccc(COc2cc(Cl)c(CN3CSC[C@H]3C(=O)N3CCN(C4CC4)c4ccccc43)cc2Cl)cc1)C(=O)O [Example 207]
1.26 to 50.1 µM	–	O=C(NCCCN(CCCNC(=O)[C@H](O)[C@@H](O)[C@H](O)[C@H](O)CO)C(=O)CCc1cc(Cl)c(CN2CSC[C@H]2C(=O)N2CCN(C3CC3)c3ccccc32)cc1Cl)[C@H](O)[C@@H](O)[C@H](O)[C@H](O)CO [Example 209]
0.126 to 1 µM	–	O=C(CCCCc1cc(Cl)c(CN2C[S+]([O-])C[C@H]2C(=O)N2CCN(C3CC3)c3ccccc32)cc1Cl)NC[C@H](O)[C@@H](O)[C@H](O)[C@H](O)CO (some centres unmarked) [Example 221]
< 0.1 µM	–	O=C(O)CNC(=O)[C@H](CS)NC(=O)CC[C@H](NC(=O)CCCCc1cc(Cl)c(CN2CSC[C@H]2C(=O)N2CCN(C3CC3)c3ccccc32)cc1Cl)C(=O)O [Example 222]
0.126 to 1 µM	–	COC(=O)c1cc(NCCCCCc2cc(Cl)c(CN3CSC[C@H]3C(=O)N3CCN(C4CC4)c4ccccc43)cc2Cl)nc(N(C)C[C@H](O)[C@@H](O)[C@H](O)[C@H](O)CO)n1 [Example 223]
0.126 to 1 µM	–	CN(C[C@H](O)[C@@H](O)[C@H](O)[C@H](O)CO)C(=O)c1cc(NCCCCCc2cc(Cl)c(CN3CSC[C@H]3C(=O)N3CCN(C4CC4)c4ccccc43)cc2Cl)nc(N(C)CCO)n1 [Example 224]
< 0.1 µM	–	CN(CCO)c1nc(NCCCCCc2cc(Cl)c(CN3CSC[C@H]3C(=O)N3CCN(C4CC4)c4ccccc43)cc2Cl)cc(C(=O)NC[C@H](O)[C@@H](O)[C@H](O)[C@H](O)CO)n1 [Example 225]
–	0.126 to 1 µM	O=C(O)CN(C[C@H](O)[C@@H](O)[C@H](O)[C@H](O)CO)C(=O)CCCCc1cc(Cl)c(CN2CSC[C@H]2C(=O)N2CCN(C3CC3)c3ccccc32)cc1Cl [Example 226]
0.126 to 1 µM	–	CN(C[C@H](O)[C@@H](O)[C@H](O)[C@H](O)CO)C(=O)c1cccc(OCc2cc(Cl)c(CN3CSC[C@H]3C(=O)N3CCN(C4CC4)c4ccccc43)cc2Cl)c1 [Example 230]
0.126 to 1 µM	–	CN(C[C@H](O)[C@@H](O)[C@H](O)[C@H](O)CO)C(=O)c1cnc(SCc2cc(Cl)c(CN3CSC[C@H]3C(=O)N3CCN(C4CC4)c4ccccc43)cc2Cl)n1C [Example 231]
1.26 to 50.1 µM	–	O=C(O)c1cnn(Cc2cc(Cl)c(CN3CSC[C@H]3C(=O)N3CCN(C4CC4)c4ccccc43)cc2Cl)c1 [Example 232]
0.126 to 1 µM	–	Cn1nc(C(=O)O)cc1OCc1cc(Cl)c(CN2CSC[C@H]2C(=O)N2CCN(C3CC3)c3ccccc32)cc1Cl [Example 233]
< 0.1 µM	–	O=C(NC[C@H](O)[C@@H](O)[C@H](O)[C@H](O)CO)c1cnn(Cc2cc(Cl)c(CN3CSC[C@H]3C(=O)N3CCN(C4CC4)c4ccccc43)cc2Cl)c1 [Example 234]

Reference: patent US20150148311A1, “NON-SYSTEMIC TGR5 AGONISTS” (Ardelyx, Inc., priority 2011, published 2015)
